# According to the supplement of paper PMC8837787:
# Test system: Saccharomyces cerevisiae ABC16-Green Monster
# Assay: growth inhibition at single dose (up to 150 µM), below the 70% cut-off for dose-response; higher = more potent
# Settings: 18 h; 30 °C; YPD
# Outline: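 The entry is percent growth inhibition of drug-sensitive S. cerevisiae ABC16-Green Monster cells. After overnight growth in YPD at 30 °C, cells were diluted to OD600 0.1–0.2 and exposed to each library compound at 150 µM in 200 µl per well, in biological duplicates with untreated cultures beside them, and OD600 was read at 0 h and after 18 h at 30 °C. Any compound under 70% in both replicates was not carried to dose-response.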
row,SMILES,growth inhibition at single dose
1,CC(C)n1ncc2c(C(=O)NCC(c3cccs3)N3CCOCC3)cc(-c3ccccc3)nc21 (configuration not stated),< 70%
2,CC(Oc1ccccc1)C(=O)Nc1nc(-c2ccccn2)cs1 (configuration not stated),< 70%
3,CC(C)C(C(=O)Nc1ccc(S(=O)(=O)N(C)C)cc1)c1ccc(Cl)cc1 (configuration not stated),< 70%
4,O=C(Nc1ccc(F)c(Cl)c1)Nc1ccc(Cl)c(Cl)c1,< 70%
5,OC1CCCCC1C1(NC(=S)Nc2ccccc2)CCCCC1 (configuration not stated),< 70%
6,Cc1ccc(C(=O)OC(C)C(=O)N2CCCC2)cc1S(=O)(=O)N1CCCCC1 (configuration not stated),< 70%
7,Cn1ccnc1SCC(=O)Nc1ccc(C(=O)Nc2ncccc2O)cc1,< 70%
8,COc1ccc(C2=NCCN2)cc1-c1cn(-c2cccc(C3=NCCN3)c2)nn1,< 70%
9,Clc1ccc2c(N3CCCC3)ccnc2c1,< 70%
10,CCOc1cc(Br)c(C(C)NC(=O)c2cccc(OC)c2)cc1OCC (configuration not stated),< 70%
11,CNC(=O)c1ccc(CN(C2CC2)S(=O)(=O)c2cc(C)ccc2C)cc1,< 70%
12,Cc1csc(SCC(=O)c2cc(C)n(-c3ccccc3)c2C)n1,< 70%
13,Cc1ccnc2nc(C(=O)Nc3cc(C(F)(F)F)ccc3N3CCCCCC3)nn12,< 70%
14,CC(C)(C)CN1C(=O)C(c2ccccc2)(c2ccccc2)N=C1N,< 70%
15,CCOC(=O)C1(Cc2ccccc2)CCN(Cc2cccc(OC)c2O)CC1,< 70%
16,CC(Nc1ccc(Oc2cccc(F)c2)cc1)C(=O)N1CCNC1=O (configuration not stated),< 70%
17,CN1CCN(c2ccc(Nc3c4ccccc4nc4ccccc34)cc2)CC1,< 70%
18,O=C(Nc1ccc2c(c1)OC1(CCCCC1)O2)c1ccc[nH]c1=O,< 70%
19,Cc1ccc(Cn2c(N3CCC(C(=O)NCc4cccs4)CC3)nc3ccccc32)cc1,< 70%
20,COc1ccc(S(=O)(=O)NN(C)c2nc(C(F)(F)F)nc3ccccc23)cc1,< 70%
21,CC(C)NC(=O)N1CCCC(C(=O)Nc2nc3ccccc3[nH]2)C1 (configuration not stated),< 70%
22,Cc1ccccc1OCCSc1nc2ccc(NC(=O)c3ccccc3)cc2s1,< 70%
23,O=c1cc(-c2ccccc2)[nH]c2ccccc12,< 70%
24,CC(=O)Nc1ccc(NC(=O)c2cc(-c3cc(Cl)ccc3O)[nH]n2)cc1,< 70%
25,O=C(NC1CCN(Cc2ccccc2)CC1)c1cc(-c2ccncc2)nc2ccc(Cl)cc12,< 70%

row,SMILES,growth inhibition at single dose
1,OC1=C2C(=Nc3ccccc3SC2c2ccc(Br)cc2)c2ccccc21 (configuration not stated),< 70%
2,CC1CC(Nc2ccccc2)c2ccccc2N1S(=O)(=O)c1ccc(Br)cc1 (configuration not stated),< 70%
3,Cc1ccc(S(=O)(=O)Nc2cccc3ncccc23)s1,< 70%
4,CCOC(=O)c1cnc2ccc(Cl)cc2c1NCCCN(C)C,< 70%
5,CCCc1ccc(-c2nc(-c3cccs3)no2)cc1,< 70%
6,CC1CC(C)C[N+](=C2C=C(N3CCCC3)CC(C)(C)C2)C1 (configuration not stated),< 70%
7,CCOc1ccccc1C(=O)Nc1cccc(-c2nc3ncccn3c2C)c1,< 70%
8,Nc1cccnc1Nc1ccc(Cl)cc1,< 70%
9,CC(C)(C)c1cnc(NC(=O)c2ccccc2O)s1,< 70%
10,Oc1ccccc1CN1CCN(C(c2ccccc2)c2ccccc2)CC1,< 70%
11,CCOC(=O)c1c(NC(=O)Cn2ncc(Cl)c(Cl)c2=O)sc(C(=O)NC)c1C,< 70%
12,CCCc1cc(O)c2c3c(c(=O)oc2c1)CN(C)CC3,< 70%
13,FC(F)(F)c1cc(NCCc2ccccc2)nc(-c2ccccn2)n1,< 70%
14,CC[C@H](CO)NCCN[C@H](CC)CO,< 70%
15,CCOc1ccc(S(=O)(=O)CC2=NCCc3cc(OC)c(OC)cc32)cc1,< 70%
16,Nc1ncc(Br)cc1-c1nc2cc(Cl)cnc2[nH]1,< 70%
17,Cc1cc2nnc(-c3ccc(C(F)(F)F)cc3)n2[nH]1,< 70%
18,CCCCCn1c(=N)n(CC(O)COc2cccc(C)c2)c2ccccc21 (configuration not stated),< 70%
19,CCOC(=O)c1ccc(N2CCN(C(C)c3nc(C(C)C)no3)CC2)nc1 (configuration not stated),< 70%
20,O=C(C1CCN(c2nnnn2-c2ccccc2)CC1)N1CCc2ccccc2C1,< 70%
21,CCCCCCc1cc(O)c2c3c(c(=O)oc2c1)CCC(C)C3 (configuration not stated),< 70%
22,N#Cc1ccc(CN2CCCN(c3ncnc4sccc34)CC2)cc1,< 70%
23,Cc1cc(C2=NNC(=NC3CC3)SC2)c(C)n1-c1ccccn1,< 70%
24,CCCn1nnc(NC(=O)COc2ccc(C3CCCCC3)cc2)n1,< 70%
25,CCCCCCn1c(=N)n(CC(O)COc2cccc(C)c2)c2ccccc21 (configuration not stated),< 70%

row,SMILES,growth inhibition at single dose
1,COC(=O)c1c(NC(=O)c2cc3ccccc3oc2=O)sc2c1CCN(Cc1ccccc1)C2,< 70%
2,C[C@H]1COc2c(N3CCN(C)CC3)c(F)cc3c(=O)c(C(=O)O)cn1c23,< 70%
3,CCOC(=O)c1cnc2ccc(CC)cc2c1O,< 70%
4,COc1ccccc1-c1noc(-c2cc3c(s2)CCCCC3)n1,< 70%
5,NC(=O)c1ccsc1NC(=O)CSc1ncc(-c2ccccc2)n1-c1ccccc1,< 70%
6,CC1S/C(=C\c2nc3ccccc3s2)NC1=O (configuration not stated),< 70%
7,Cc1cc(C(=O)NCC#Cc2cccc(C(F)(F)F)c2)on1,< 70%
8,CCC(=O)Nc1nnc(Cc2ccc(OC)c(OC)c2)s1,< 70%
9,CCCN(CCC)CC(O)COc1ccccc1C(=O)Nc1ccccc1 (configuration not stated),< 70%
10,CCCCn1nc(C)c(C(=O)Nc2nc3ccccc3[nH]2)c1Cl,< 70%
11,Cc1ccc(-c2cnn3c(NCCN(C)C)cc(C)nc23)cc1,< 70%
12,O=C(COc1ccc(Oc2ccccc2)cc1)NCc1cn2ccccc2n1,< 70%
13,Cc1ccc(O)c(C(=O)NCCC(C)C)c1,< 70%
14,COc1ccc(CNc2ncnc3ccccc23)cc1,< 70%
15,COc1cccc(C=Cc2nc(=O)c3ccccc3o2)c1OC,< 70%
16,O=C(NCCc1c[nH]c2ccccc12)c1cc2ccccc2oc1=O,< 70%
17,c1ccc2c(c1)[nH]c1nc(SCc3cn4ccsc4n3)nnc12,< 70%
18,c1cc(C2=NCCN2)cc(-c2cc(-c3ccc(C4=NCCN4)cc3)no2)c1,< 70%
19,CC(C)(C)C1CCC(CC2=C(O)C(=O)c3ccccc3C2=O)CC1 (configuration not stated),< 70%
20,CC(C(=O)NC(N)=O)N(C)Cc1ccc(OCc2ccc(Cl)cc2)cc1 (configuration not stated),< 70%
21,CCN(CC)S(=O)(=O)N1CCN(C(=O)c2[nH]nc3ccccc23)CC1,< 70%
22,COC(=O)c1cccc2oc(-c3cccc(OC)c3NC(=O)c3cc(-c4ccccc4)on3)nc12,< 70%
23,CSc1nc2nc(C)c(CCC(=O)N(CC(F)(F)F)C(C)C3CC3)c(C)n2n1 (configuration not stated),< 70%
24,CC(=O)NC[C@H]1CN(c2ccc(N3CCSCC3)c(F)c2)C(=O)O1,< 70%
25,Oc1c(I)cc(I)c2cccnc12,< 70%

row,SMILES,growth inhibition at single dose
1,Cn1c(=O)c2cc(C(=O)NCCCN3CCCCCC3)sc2c2ccccc21,< 70%
2,CNc1snc(C)c1C(=O)OCc1cc(C(=O)OC)c(C)o1,< 70%
3,COc1ccc(N(Cc2nc(-c3cccs3)oc2C)S(=O)(=O)c2cccs2)cc1,< 70%
4,Cc1ccc(NC(=O)c2nc[nH]c2C(=O)Nc2nc3ccccc3[nH]2)c(C)c1,< 70%
5,O=C(CCc1ccco1)NC1CCN(CC2(c3ccc(Cl)cc3)CCC2)CC1,< 70%
6,CC(C)=CCN1CCC(C(=O)Nc2ccc(-c3nc4ccccc4[nH]3)cc2)CC1,< 70%
7,CCN1CCN(c2cc(C)c3cc(NC(=O)c4ccc(OC)c(OC)c4)ccc3n2)CC1,< 70%
8,CC(C)(C)c1ccc(C2CC3=Nc4ccccc4N(C(=O)c4ccccc4Cl)C(c4ccc(F)cc4)C3=C(O)C2)cc1 (configuration not stated),< 70%
9,O=C(Nc1cnc2ccccc2c1)c1cccc(NC(=O)c2cccs2)c1,< 70%
10,COC(=O)c1ccc(Cl)c2c1C1C=CCC1C(c1cccc3ccccc13)N2 (configuration not stated),< 70%
11,CS(=O)(=O)c1ccc(C(=O)N(CC2CCCO2)c2nc3ccccc3s2)cc1[N+](=O)[O-] (configuration not stated),< 70%
12,CC(C)(C)c1cc(C(=O)Nc2cccnc2)cc(C(=O)Nc2cccnc2)c1,< 70%
13,O=C(NCc1ccc(N2CCCC2=O)cc1)c1cccnc1OCC(F)(F)F,< 70%
14,O=C1C=C/C(=N\Nc2ccc3ccccc3c2)c2cccnc21,< 70%
15,CC(C)n1ncc2cc(C(=O)Nc3nc(-c4ccccn4)cs3)cnc21,< 70%
16,O=c1c2ccccc2cnn1-c1nc2ccccc2[nH]1,< 70%
17,CCC(C)NC(=O)c1ccc(NC(=O)C2(c3ccccc3)CCCC2)cc1 (configuration not stated),< 70%
18,CCOC(=O)c1cnc2c(CC)cccc2c1O,< 70%
19,COc1ccc(Nc2ccccc2NC(=O)c2ccc(O)nc2)cc1,< 70%
20,COc1ccc(-c2cc3ncnc(NCc4ccc(N5CCN(C)CC5)nc4)c3s2)cc1,< 70%
21,COc1cccc(/C=C/c2n[nH]c(=O)c(C#N)c2C)c1,< 70%
22,COc1cc2ncnc(NC3CCN(Cc4ccccc4)CC3)c2cc1OC,< 70%
